The test system of test [1] is Arabidopsis thaliana seeds. Kind of test: Arabidopsis seed germination on sterol-supplemented media. In kind it is in vivo. Conditions: for decrease in germination: 100 μM exogenous sterol. The method, then:
(§1) Plants and Plant Growth Conditions. Cholesterol (C3045, Sigma-Aldrich, USA), stigmasterol (S2424, Sigma-Aldrich, USA), and β-sitosterol (567152, Millipore-Sigma, USA) were prepared as stock solutions with a slight modification from that described in literature. Sterols were dissolved in 100% ethanol at 1.5 mM concentration and combined with methyl-β-cyclodextrin (MβCD) (Sigma-Aldrich, USA) at a molar ratio of 1:3 to a final concentration of 1-300 μM sterol and 1-900 μM MβCD. The probe was either sonicated for 30 minutes and vortexed for 15 minutes before use, or just vortexed for 30 min before use. To make a powered water soluble form, the sterol (40-70% w/w β-sitosterol) is dissolved in 100% ethanol and then solubilized in β-cyclodextrins or their derivatives in water. The solution is then reduced by evaporation or freeze-drying to a powdered form.
(§2) The wild-type and transgenic seeds of Arabidopsis thaliana were surface-sterilized with 70% ethanol, rinsed in sterile distilled water (+/− sterol) and incubated at 4° C. in the dark for 48 hr. The imbibed seeds were then planted either planted in Petri dishes or in hydroponic containers. For Petri dish growth, 1% (w/v) agar (Sigma-Aldrich, USA) was dissolved in ½ strength Murashige and Skoog medium containing vitamins (Caisson Labs, USA) (+/− sterol), and the pH was adjusted to between 5.6 and 5.8. The seedlings were grown in vertically placed Petri dishes containing this medium for 5-10 days at 22° C. under the continuous white light (50 μmol m^−2sec^−1 photosynthetically active radiation). Hydroponic culture was a modification of that described in previous literature. The seeds were placed on a mesh inserted into the bottom of a sterile polypropylene 2 oz cup with a lid (TY-M2-100, Bingwu, sold on Amazon) inset into either a 4 oz sterile polypropylene cup (TY-M4-N50 Bingwu, sold on Amazon) or a black 5.5 oz sterile polypropylene Dart Conex cup (B07BK1DPPS, Table Top King, sold on Amazon). Enough medium (½ strength Murashige and Skoog medium containing vitamins (Caisson Labs, USA) (+/− sterol), and the pH was adjusted to between 5.6 and 5.8) was added to bring it up to the level of the mesh. They were grown for […] to maturity (˜75 days) in an 18:6 hr photoperiod at 22° C. with 100 […] photosynthetically active. Following growth, they were then harvested for sterol analysis, leaf venation analysis, or fresh and dry weight analysis, or photographed for image analysis of root, hypocotyl, and stem growth and color. Seed from typical crop plants, Nicotiana tabacum (tobacco) and Zea mays (corn) were also sown in defined medium in the presence and absence of encapsulated sterol to assess percent germination after one week. Common weed seeds (Amaranthus palmeri, Poa annua, and Ambrosia sp.) collected from natural sources were either grown in defined media (agar and Mirashige and Skoog medium) or planted in natural soils (sandy loam) in 2 inch inserts in plastic one foot square flats. They were treated with 100-500 microMolar phytosterol mix (40% β-sitosterol, 20% campesterol, 7% stigmasterol (SKU BSIT100, Bulk Supplements) with a 3:1 molar ratio of methyl-β-cyclodextrin in water. Growth was assessed in treated and untreated (only water) by seedling emergence in days after planting in a greenhouse with natural lighting.
(§3) Materials and Methods. Arabidopsis seeds were given a pre-cold treatment with a mixture of sterol, cholesterol (Sigma-Aldrich) or stigmasterol (Sigma-Aldrich) (1 microMolar, 10 microMolar and 100 microMolar) and methyl-β-cyclodextrin (Sigma-Aldrich) (1:3 ratio) and then planted on Murashige and Skoog-½ strength (Caisson's Lab) 1% agar media supplemented with a mixture of respective sterol and cyclodexterin (1:3 ratio). Common weed seeds (Amaranthus palmeri, Poa annua, and Ambrosia sp.) collected from natural sources were planted in natural soils (sandy loam) in 2 inch inserts in plastic one foot square flats. […]

The test system of another test is Arabidopsis thaliana. Kind of test: Arabidopsis growth and development on sterol-supplemented media. Conditions: for growth phenotype: 100 μM exogenous sterol; for root anatomy: 100 μM sterol; for biomass: 8-days old seedlings on sterol-supplemented media, high sterol (FIG. 5A, 5B); for chlorophyll levels: plants grown on sterol media (FIG. 4A-4D); for root and root hair growth and development: sterol-supplemented media (FIG. 3A-3E). In kind it is in vivo. As to the method: as §1, §2, §3

Where [2] appears, read: 10 microMolar encapsulated sterol.
The mark [3] stands for this setting: 100 microMolar encapsulated sterol.

SMILES strings stand for the structures.

Turning to `CC(C)CCC[C@@H](C)[C@H]1CC[C@H]2[C@@H]3CC=C4C[C@@H](O)CC[C@]4(C)[C@H]3CC[C@]12C` [cholesterol, Cholesterol], the decrease in germination in test [1] came out at 40%. In addition, the “seed germination (in words)” value in test [1] (setting [2]) was “seeds germinate”. In test [1] (setting [3]), the “seed germination (in words)” value is recorded as “significantly inhibit”. In test [1] (300 microMolar encapsulated sterol, after a week of growth (FIG. 6A)), this compound returned a germination inhibited of 90%. For the same compound, the vein pattern result with Arabidopsis thaliana (100 μM) was “altered vein pattern”. In addition, in the test on Arabidopsis thaliana, the growth phenotype entry was “severe dwarfism”, the root anatomy result is “altered root anatomy”, the biomass result is “reduced biomass” and the chlorophyll levels result is listed as “change chlorophyll levels”. In the test on Arabidopsis thaliana, the “root and root hair growth and development” value is recorded as “alters”.

Take `CC[C@H](/C=C/[C@@H](C)[C@H]1CC[C@H]2[C@@H]3CC=C4C[C@@H](O)CC[C@]4(C)[C@H]3CC[C@]12C)C(C)C` [stigmasterol]: the decrease in germination in test [1] is on record as 35%. Besides, in test [1] (setting [2]), the “seed germination (in words)” value is “seeds germinate”. In test [1] (setting [3]), the “seed germination (in words)” value was “significantly inhibit”. Moreover, in the test with Arabidopsis thaliana, the growth phenotype entry is on record as “severe dwarfism”, the root anatomy entry is reported as “altered root anatomy”, the biomass entry is on record as “reduced biomass” and the chlorophyll levels entry was “change chlorophyll levels”. Further, the “root and root hair growth and development” value with Arabidopsis thaliana is “alters”.

The record behind these values is US20220312762A1, “USE OF ENCAPSULATED STEROLS TO MODIFY GROWTH OF CROPS, CONTROL, AGRICULTURAL PESTS AND AS NON-TOXIC PRE-EMERGENT HERBICIDES” (The Texas A&M University System, priority 2019, published 2022).
